The source of these data is patent US20030130180A1, “Utilization of an aminopeptidase inhibitor” (priority 2000, published 2003).

For assay [1], the system named is tumor cells. The conditions noted are these: cited from earlier work; for tumor cell invasion: in vitro, matrigel analytic system.
The test system of assay [2] is tumor cells and immune cells. The experiment in a line: Cell-biological experiments on blocking of polarization of tumor cells and immune cells. Type of assay: cell-based. The conditions noted are these: general statement. The source says: By means of a method of simultaneously detecting a number of cell surface proteins, it has been established that aminopeptidases will control cell surface proteins which are not part of the class of proteolytic enzymes, but belong to the class of the adhesion molecules, which adhesion molecules—in a certain combination and geometric array—will be decisive for the polarization of the cells. Consequently, aminopeptidases appear to be superordinate control proteins in a protein network consisting of up to 30 different cell surface protein species which—through specific interaction with one another—will control polarization of tumor cells and other invasive cells such as immune cells and which are listed above. The inhibition of at least one aminopeptidase will lead to a reproducible modification of surface protein combinations on the cell surface which will always also involve a modification of CD13. […] The term polarization as used here shall denote a process in which a primarily spherical cell will transition into an oblong, elongated cell shape, via various intermediate states. This process which constitutes a change of shape controlled by the complex protein network is the prerequisite for cell migration, since only cells of oblong shape are capable of migrating. The polarization process therefore needs to precede all cell migration processes, including invasion. […]

Assay [3] relates to tumor cells. Particulars: cited from earlier work.

Molecules are shown by their SMILES.

Consider `CCc1cccc(CC)c1N1C(=O)Cc2ccccc2C1=O` [PIQ-22], for which, in assay [1], the “formation of cell extensions” value is reported as “suppression of the formation of cell extensions” and the tumor cell invasion result was “inhibition of the invasion”.

With `CC(C)C[C@H](NC(=O)[C@@H](O)[C@H](N)Cc1ccccc1)C(=O)O` [bestatin], the “modification of the surface proteins of the protein network” value in assay [2] is “leading to a modification of the surface proteins of the protein network”. Further, in assay [3], the “degradation of type IV collagen” value is listed as “capable of preventing degradation of the type IV collagen”; the “invasion of tumor cells” value is recorded as “preventing the invasion of tumor cells”; the “tumor cell adhesion and migration to the extracellular matrix” value was “does not have any influence”. Moreover, in assay [1], the “formation of cell extensions” value is “no effect” and the tumor cell invasion entry was “do not have an effect”.
